Like-named read-outs stand apart in the source and are kept apart here. Square brackets hold non-standard residues; d marks the D form. Ends that are not written are not given here. Peptide text beside a SMILES is read from it.
Tests used:
[1] = In vitro peptide stability in human serum (RP-HPLC); settings: for half-life / half-life at 50 µg/mL: human; for half-life: serum; for half-life at 50 µg/mL: human serum, 25% (v/v) in RPMI
human CMKLR1 = molecular target: T1, human CMKLR1 (Homo sapiens, UniProt Q99788); assay: Ca2+ mobilization (CellLux imaging) agonist assay in HEK293A cells expressing CMKLR1 and Gα15; type: cell-based
T1 construct: host or cells: HEK293A (Invitrogen), stably expressing human Gα15
T1 sequence (Q99788 1-373): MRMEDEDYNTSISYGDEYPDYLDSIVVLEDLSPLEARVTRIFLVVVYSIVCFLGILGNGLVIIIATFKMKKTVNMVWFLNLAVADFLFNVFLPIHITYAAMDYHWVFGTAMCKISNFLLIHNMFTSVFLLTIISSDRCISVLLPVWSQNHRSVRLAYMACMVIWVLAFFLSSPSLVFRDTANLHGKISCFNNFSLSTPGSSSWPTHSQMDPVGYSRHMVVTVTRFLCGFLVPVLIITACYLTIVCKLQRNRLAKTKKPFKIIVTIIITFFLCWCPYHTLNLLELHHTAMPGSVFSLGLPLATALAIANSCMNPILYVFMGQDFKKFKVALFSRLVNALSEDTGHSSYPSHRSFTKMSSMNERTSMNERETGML
Description: HEK293A cells (Invitrogen) expressing CMKLR1 and Gα15 were seeded at 5*10^4 cells/well in a poly-D-lysine coated 96-well black well/clear bottom plate (BD Falcon) and cultured overnight. From eighteen to twenty-four hours later, cells were loaded with FLUO4-AM (Invitrogen). Then the cells were washed two times with C1 solution (130 mM NaCl, 5 mM KCl, 10 mM HEPES pH 7.4, 2 mM CaCl2, and 10 mM Glucose). After the final wash, a 100 µL of residual volume remained on the cells. Peptides were dissolved in 10% DMSO to a concentration of 1 mM and were diluted in C1 solution with 0.1 % BSA. They were aliquoted as 2x solutions in 96-well plates and were simultaneously transferred by the robotic system within the imager from the ligand plate to the cell plate. […] Fluorescence data was generated in duplicate and experiments were repeated for at least three times. […] For the calculation of concentration-response curves, signals of two wells receiving the same concentration of test substances were averaged and the fluorescence changes of corresponding buffer C1 wells were subtracted. Signals were normalized to background fluorescence. For the calculation of EC50 values, plots of amplitude versus concentrations were prepared in SigmaPlot 11.

[2] = intracellular calcium mobilization, HEK293 cells expressing CMKLR1, mean of three independent experiments ± SD, read-out: activity: EC50 ±SD
[3] = Ca2+ mobilization, CMKLR1, decimal comma
[4] = Ca2+ mobilization, CMKLR1, decimal comma, NR where no EC50 is given, read-out: EC50

Molecule	max response (human CMKLR1; [3])	EC50 (human CMKLR1; [4]) [nM]	also measured
CC(C)C[C@H](NC(=O)[C@@H](N)Cc1ccc(O)cc1)C(=O)N1CCC[C@H]1C(=O)NCC(=O)N[C@@H](CCC(N)=O)C(=O)N[C@@H](Cc1ccc(O)cc1)C(=O)N[C@@H](C)C(=O)N[C@@H](Cc1ccccc1)C(=O)N[C@H](Cc1ccccc1)C(=O)O (H-YLPGQYAF[dF]-OH)			half-life [1]: 36 ± 4 min
CC(C)C[C@H](NC(=O)[C@@H](N)Cc1ccc(O)cc1)C(=O)N1CCC[C@H]1C(=O)NCC(=O)N[C@@H](CCC(N)=O)C(=O)N[C@@H](Cc1ccc(O)cc1)C(=O)N[C@@H](C)C(=O)N[C@@H](Cc1ccccc1)C(=O)N[C@H](CO)C(=O)O (H-YLPGQYAF[dS]-OH; N-terminus assumed)			half-life at 50 µg/mL [1]: 22 ± 2 min
C[C@H](NC(=O)[C@H](Cc1ccc(O)cc1)NC(=O)[C@H](CCC(N)=O)NC(=O)CNC(=O)[C@@H]1CCCN1C(=O)[C@H](CCCNC(=N)N)NC(=O)[C@@H](N)Cc1ccc(O)cc1)C(=O)N[C@@H](Cc1ccccc1)C(=O)N[C@H](CO)C(=O)O (H-YRPGQYAF[dS]-OH; N-terminus assumed)			EC50 (human CMKLR1; [2]): 8.62 ± 5.01 nM; half-life at 50 µg/mL [1]: 21 ± 4 min
CC(C)[C@H](NC(=O)[C@@H](N)Cc1ccc(O)cc1)C(=O)N1CCC[C@H]1C(=O)NCC(=O)N[C@@H](CCC(N)=O)C(=O)N[C@@H](Cc1ccccc1)C(=O)N[C@@H](C)C(=O)N[C@@H](Cc1ccccc1)C(=O)N[C@H](Cc1ccccc1)C(=O)O (H-YVPGQFAF[dF]-OH; N-terminus assumed)			EC50 (human CMKLR1; [2]): 4.17 ± 2.31 nM; half-life at 50 µg/mL [1]: 42 ± 19 min
CC(C)C[C@H](NC(=O)[C@H](N)Cc1ccc(O)cc1)C(=O)N1CCC[C@H]1C(=O)NCC(=O)N[C@@H](CCC(N)=O)C(=O)N[C@@H](Cc1ccc(O)cc1)C(=O)N[C@@H](C)C(=O)N[C@@H](Cc1ccccc1)C(=O)N[C@@H](Cc1ccccc1)C(=O)O (H-[dY]LPGQYAFF-OH; N-terminus assumed)			half-life at 50 µg/mL [1]: 135 ± 39 min
CC(C)C[C@H](NC(=O)[C@H](N)Cc1ccc(O)cc1)C(=O)N1CCC[C@H]1C(=O)NCC(=O)N[C@@H](CCC(N)=O)C(=O)N[C@@H](Cc1ccc(O)cc1)C(=O)N[C@@H](C)C(=O)N[C@@H](Cc1ccccc1)C(=O)N[C@@H](CO)C(=O)O (H-[dY]LPGQYAFS-OH)			half-life [1]: 77 ± 5 min
CC(C)C[C@H](NC(=O)[C@@H](N)Cc1ccc(O)cc1)C(=O)N1CCC[C@H]1C(=O)NCC(=O)N[C@@H](CCC(N)=O)C(=O)N[C@@H](Cc1ccc(O)cc1)C(=O)N[C@H](Cc1c[nH]c2ccccc12)C(=O)N[C@@H](Cc1ccccc1)C(=O)N[C@H](Cc1ccccc1)C(=O)O [YLPGQYwFf] (H-YLPGQY[dW]F[dF]-OH; N-terminus assumed)			EC50 (human CMKLR1; [2]): 3.24 ± 1.02 nM; half-life at 50 µg/mL [1]: 159 ± 56 min
CC(C)C[C@H](NC(=O)[C@@H](N)Cc1ccc(O)cc1)C(=O)N1CCC[C@H]1C(=O)N[C@H](C)C(=O)N[C@@H](CCC(N)=O)C(=O)N[C@@H](Cc1ccc(O)cc1)C(=O)N[C@@H](C)C(=O)N[C@@H](Cc1ccccc1)C(=O)N[C@H](CO)C(=O)O [YLPaQYAFs] (H-YLP[dA]QYAF[dS]-OH; N-terminus assumed)			EC50 (human CMKLR1; [2]): 4.42 ± 3.41 nM; half-life at 50 µg/mL [1]: 110 ± 26 min
CC(C)C[C@H](NC(=O)[C@@H](N)Cc1ccc(O)cc1)C(=O)N1CCC[C@H]1C(=O)N[C@H](CCC(N)=O)C(=O)N[C@@H](CCC(N)=O)C(=O)N[C@@H](Cc1ccc(O)cc1)C(=O)N[C@@H](C)C(=O)N[C@@H](Cc1ccccc1)C(=O)N[C@H](Cc1ccccc1)C(=O)O [YLPqQYAFf] (H-YLP[dQ]QYAF[dF]-OH; N-terminus assumed)			EC50 (human CMKLR1; [2]): 4.24 ± 1.87 nM; half-life at 50 µg/mL [1]: 87 ± 19 min
CC(C)C[C@H](NC(=O)[C@@H](N)Cc1ccc(O)cc1)C(=O)N1CCC[C@H]1C(=O)NCC(=O)N[C@@H](CCC(N)=O)C(=O)N[C@@H](Cc1ccccc1)C(=O)N[C@H](Cc1ccccc1)C(=O)N[C@@H](Cc1ccccc1)C(=O)N[C@@H](CO)C(=O)O [compound 28] (H-YLPGQF[dF]FS-OH; N-terminus assumed)	0,97 DF/F0	0.77	half-life at 50 µg/mL [1]: 24 min
C[C@@H](NC(=O)[C@H](Cc1ccccc1)NC(=O)[C@H](Cc1ccccc1)NC(=O)[C@@H](CO)NC(=O)[C@@H]1CCCN1C(=O)[C@@H](Cc1ccc(O)cc1)NC(=O)[C@H](N)Cc1ccc(O)cc1)C(=O)N[C@@H](Cc1ccccc1)C(=O)N1CCC[C@H]1C(=O)O [compound 154] (H-[dY][dY]P[dS]FF[dA]FP-OH; N-terminus assumed)			half-life at 50 µg/mL [1]: 374 min
CC(C)C[C@H](NC(=O)[C@H](N)Cc1ccc(O)cc1)C(=O)N1CCC[C@H]1C(=O)N[C@H](CO)C(=O)N[C@@H](CCC(N)=O)C(=O)N[C@@H](Cc1ccc(O)cc1)C(=O)N[C@@H](C)C(=O)N[C@@H](Cc1ccccc1)C(=O)N[C@H](Cc1ccccc1)C(=O)O [yLPsQYAFf] (H-[dY]LP[dS]QYAF[dF]-OH; N-terminus assumed)			EC50 (human CMKLR1): 0.49 ± 0.13 nM
FLPGQFAFS-NH2 [compound 3]	1,77 DF/F0	41.3	
FPPGQGAFK-OH [compound 66]	0,67 DF/F0	1180	
FYPGQWAYS-NH2 [compound 20]	0,64 DF/F0	12900	
WFPGQYAYS-NH2 [compound 23]	0,44 DF/F0	20700	
WYPGNFAFS-NH2 [compound 16]	1,47 DF/F0	3840	
YFPGHFAFS-NH2			stability: t1/2 ±SD ([1]; peptide half life in human serum (25% v/v in RPMI, 37°C), HPLC assay, mean of three independent experiments ± SD): 17 ± 4 min
YFPGHFAFS-NH2 [compound 7]	1,55 DF/F0		
YFPGHFAFS-OH [compound 31]			max response (human CMKLR1): 1,07 DF/F0
YFPGNFAFS-NH2 [compound 6]	1,30 DF/F0		
YFPGNFAFS-OH [compound 32]			max response (human CMKLR1): 0,89 DF/F0
YFPGQFAFG-OH			half-life at 50 µg/mL [1]: 13 ± 1 min
YFPGQFAFK-NH2 [compound 2]	1,84 DF/F0	37.3	
YFPGQFAFQ-OH [compound 50]	1,04 DF/F0	52.6	
YFPGQFDFS-OH [compound 53]			max response (human CMKLR1): 0,93 DF/F0
YFPGQWAWS-NH2 [compound 9]	1,61 DF/F0	1880	
YFPGQYAFF-NH2 [compound 1]	1,47 DF/F0	15.2	
YFPGYFAFG-NH2 [compound 11]	1,41 DF/F0	2620	
YYPGQYAYS-NH2 [compound 17]	1,09 DF/F0	4360	

Second part, led by results:

max response (human CMKLR1; [3])	EC50 (human CMKLR1; [4]) [nM]	Molecule	also measured
1,24 DF/F0	2440	C[C@H](NC(=O)[C@H](Cc1ccccc1)NC(=O)[C@@H](CCC(N)=O)NC(=O)CNC(=O)[C@H](Cc1ccccc1)NC(=O)[C@H](C)NC(=O)[C@@H](N)Cc1ccccc1)C(=O)N[C@@H](Cc1ccccc1)C(=O)N[C@H](CO)C(=O)O [compound 114] (H-FAFG[dQ]FAF[dS]-OH; N-terminus assumed)	
0,9 DF/F0	4140	CC(C)C[C@H](NC(=O)[C@H]1CCCN1C(=O)CNC(=O)[C@H](Cc1ccccc1)NC(=O)[C@H](CC(C)C)NC(=O)[C@@H](N)Cc1ccccc1)C(=O)N[C@@H](C)C(=O)N[C@@H](CC(C)C)C(=O)N1CCC[C@@H]1C(=O)O [compound 116] (H-FLFG[dP]LAL[dP]-OH; N-terminus assumed)	
0,61 DF/F0	21500	CC(C)C[C@H](NC(=O)[C@@H](Cc1ccccc1)NC(=O)[C@H]1CCCN1C(=O)[C@H](CC(C)C)NC(=O)[C@H](C)NC(=O)[C@H](Cc1ccc(O)cc1)NC(=O)[C@H]1CCCN1C(=O)[C@H](CC(C)C)NC(=O)[C@H](N)Cc1ccccc1)C(=O)O [compound 118] (H-[dF]L[dP]YAL[dP][dF]L-OH; N-terminus assumed)	
1,62 DF/F0	139	CC(C)C[C@H](NC(=O)[C@H](Cc1ccccc1)NC(=O)[C@H](Cc1ccc(O)cc1)NC(=O)[C@@H]1CCCN1C(=O)[C@H]1CCCN1C(=O)[C@@H]1CCCN1C(=O)[C@H](CC(C)C)NC(=O)[C@H](N)Cc1ccc(O)cc1)C(=O)N[C@H](Cc1ccccc1)C(=O)O [compound 143] (H-[dY]LP[dP]PYFL[dF]-OH; N-terminus assumed)	
1,7 DF/F0	302	CC(C)C[C@H](NC(=O)[C@H](Cc1ccc(O)cc1)NC(=O)[C@@H](Cc1ccccc1)NC(=O)[C@@H]1CCCN1C(=O)[C@H]1CCCN1C(=O)[C@@H]1CCCN1C(=O)[C@H](CC(C)C)NC(=O)[C@@H](N)Cc1ccc(O)cc1)C(=O)N1CCC[C@H]1C(=O)O [compound 152] (H-YLP[dP]P[dF]YLP-OH; N-terminus assumed)	
0,73 DF/F0	1240	FLPGQFAFK-OH [compound 67]	

Source: article PMC3351444, “Molecular Evolution of a Peptide GPCR Ligand Driven by Artificial Neural Networks” (PLoS ONE, 2012)
